Assay results reported in ChEMBL document CHEMBL5113454, “Design, synthesis, and bioactivity study on Lissodendrins B derivatives as PARP1 inhibitor” (Bioorg Med Chem, 2022).
Calls of active or inactive are those of the source. The calls are words filed in the database; no cut-off is given here.

Experiments:
HCC1937 [1] = test: Antiproliferative activity against human HCC1937 cells after 7 days by resazurin reduction assay; details: HCC1937, 168 h
MDA-MB-436 [2] = test: Antiproliferative activity against human MDA-MB-436 cells after 7 days by resazurin reduction assay; details: MDA-MB-436, 168 h
MDA-MB-436 [3] = test: Induction of DNA damage in BRCA1-deficient human MDA-MB-436 cells at 0.1 to 15 uM assessed as increase in accumulation of DNA double-strand breaks measuring gamma-H2AX levels by Western blot analysis; type: functional, cell-based; details: dose 0.1-15 µM
MCF7 = test: Induction of DNA damage in human MCF7 cells expressing BRCA1 at 0.1 to 15 uM assessed as increase in accumulation of DNA double-strand breaks measuring gamma-H2AX levels by Western blot analysis; type: functional, cell-based; details: dose 0.1-15 µM
MDA-MB-436 [4] = test: Induction of apoptosis in BRCA1-deficient human MDA-MB-436 cells at 0.1 to 15 uM measured after 24 hrs by Annexin V/propidium iodide (PI) based FACS analysis; type: functional, cell-based; details: dose 0.1-15 µM
HCC1937 [5] = test: Induction of apoptosis in BRCA1-deficient human HCC1937 cells at 0.1 to 15 uM measured after 24 hrs by Annexin V/propidium iodide (PI) based FACS analysis; type: functional, cell-based; details: dose 0.1-15 µM
MDA-MB-436 [6] = test: Cell cycle arrest in BRCA1-deficient human MDA-MB-436 cells assessed as accumulation at G1 phase at 0.1 uM measured after 24 hrs by propidium iodide (PI) based FACS analysis (reference value: 26.7%); type: functional
MDA-MB-436 [7] = test: Cell cycle arrest in BRCA1-deficient human MDA-MB-436 cells assessed as accumulation at S phase at 0.1 uM measured after 24 hrs by propidium iodide (PI) based FACS analysis (reference value: 27.4%); type: functional
MDA-MB-436 [8] = test: Cell cycle arrest in BRCA1-deficient human MDA-MB-436 cells assessed as accumulation at G2 phase at 0.1 uM measured after 24 hrs by propidium iodide (PI) based FACS analysis (reference value: 17.6%); type: functional
MDA-MB-436 [9] = test: Cell cycle arrest in BRCA1-deficient human MDA-MB-436 cells assessed as accumulation at G1 phase at 1 uM measured after 24 hrs by propidium iodide (PI) based FACS analysis (reference value: 26.7%); type: functional
MDA-MB-436 [10] = test: Cell cycle arrest in BRCA1-deficient human MDA-MB-436 cells assessed as accumulation at S phase at 1 uM measured after 24 hrs by propidium iodide (PI) based FACS analysis (reference value: 27.4%); type: functional
MDA-MB-436 [11] = test: Cell cycle arrest in BRCA1-deficient human MDA-MB-436 cells assessed as accumulation at G2 phase at 1 uM measured after 24 hrs by propidium iodide (PI) based FACS analysis (reference value: 17.6%); type: functional
MDA-MB-436 [12] = test: Cell cycle arrest in BRCA1-deficient human MDA-MB-436 cells assessed as accumulation at G1 phase at 5 uM measured after 24 hrs by propidium iodide (PI) based FACS analysis (reference value: 26.7%); type: functional
MDA-MB-436 [13] = test: Cell cycle arrest in BRCA1-deficient human MDA-MB-436 cells assessed as accumulation at S phase at 5 uM measured after 24 hrs by propidium iodide (PI) based FACS analysis (reference value: 27.4%); type: functional
MDA-MB-436 [14] = test: Cell cycle arrest in BRCA1-deficient human MDA-MB-436 cells assessed as accumulation at G2 phase at 5 uM measured after 24 hrs by propidium iodide (PI) based FACS analysis (reference value: 17.6%); type: functional
MDA-MB-436 [15] = test: Cell cycle arrest in BRCA1-deficient human MDA-MB-436 cells assessed as accumulation at G1 phase at 15 uM measured after 24 hrs by propidium iodide (PI) based FACS analysis (reference value: 26.7%); type: functional
MDA-MB-436 [16] = test: Cell cycle arrest in BRCA1-deficient human MDA-MB-436 cells assessed as accumulation at S phase at 15 uM measured after 24 hrs by propidium iodide (PI) based FACS analysis (reference value: 27.4%); type: functional
MDA-MB-436 [17] = test: Cell cycle arrest in BRCA1-deficient human MDA-MB-436 cells assessed as accumulation at G2 phase at 15 uM measured after 24 hrs by propidium iodide (PI) based FACS analysis (reference value: 17.6%); type: functional
HCC1937 [18] = test: Cell cycle arrest in BRCA1-deficient human HCC1937 cells assessed as accumulation at G1 phase at 0.1 uM measured after 24 hrs by propidium iodide (PI) based FACS analysis (reference value: 31.6%); type: functional
HCC1937 [19] = test: Cell cycle arrest in BRCA1-deficient human HCC1937 cells assessed as accumulation at S phase at 0.1 uM measured after 24 hrs by propidium iodide (PI) based FACS analysis (reference value: 26%); type: functional
HCC1937 [20] = test: Cell cycle arrest in BRCA1-deficient human HCC1937 cells assessed as accumulation at G2 phase at 0.1 uM measured after 24 hrs by propidium iodide (PI) based FACS analysis (reference value: 13.5%); type: functional
HCC1937 [21] = test: Cell cycle arrest in BRCA1-deficient human HCC1937 cells assessed as accumulation at G1 phase at 1 uM measured after 24 hrs by propidium iodide (PI) based FACS analysis (reference value: 31.6%); type: functional
HCC1937 [22] = test: Cell cycle arrest in BRCA1-deficient human HCC1937 cells assessed as accumulation at S phase at 1 uM measured after 24 hrs by propidium iodide (PI) based FACS analysis (reference value: 26%); type: functional
HCC1937 [23] = test: Cell cycle arrest in BRCA1-deficient human HCC1937 cells assessed as accumulation at G2 phase at 1 uM measured after 24 hrs by propidium iodide (PI) based FACS analysis (reference value: 13.5%); type: functional
HCC1937 [24] = test: Cell cycle arrest in BRCA1-deficient human HCC1937 cells assessed as accumulation at G1 phase at 5 uM measured after 24 hrs by propidium iodide (PI) based FACS analysis (reference value: 31.6%); type: functional
HCC1937 [25] = test: Cell cycle arrest in BRCA1-deficient human HCC1937 cells assessed as accumulation at S phase at 5 uM measured after 24 hrs by propidium iodide (PI) based FACS analysis (reference value: 26%); type: functional
HCC1937 [26] = test: Cell cycle arrest in BRCA1-deficient human HCC1937 cells assessed as accumulation at G2 phase at 5 uM measured after 24 hrs by propidium iodide (PI) based FACS analysis (reference value: 13.5%); type: functional
HCC1937 [27] = test: Cell cycle arrest in BRCA1-deficient human HCC1937 cells assessed as accumulation at G1 phase at 15 uM measured after 24 hrs by propidium iodide (PI) based FACS analysis (reference value: 31.6%); type: functional
HCC1937 [28] = test: Cell cycle arrest in BRCA1-deficient human HCC1937 cells assessed as accumulation at S phase at 15 uM measured after 24 hrs by propidium iodide (PI) based FACS analysis (reference value: 26%); type: functional
HCC1937 [29] = test: Cell cycle arrest in BRCA1-deficient human HCC1937 cells assessed as accumulation at G2 phase at 15 uM measured after 24 hrs by propidium iodide (PI) based FACS analysis (reference value: 13.5%); type: functional

IC50 (HCC1937 [1]): 17.8 µM
IC50 (MDA-MB-436 [2]): 12.6 µM
SMILES: COc1ccc(C(=O)C(=O)c2c(-c3ccc(OC)cc3)nc(NC(=O)CN3CCc4cc(OC)c(OC)cc4C3)n2C)cc1
Activity (MDA-MB-436 [3]): Active
Activity (MCF7): Active
Activity (MDA-MB-436 [4]): Active
Activity (HCC1937 [5]): Active
Activity (MDA-MB-436 [6]): 23.3%
Activity (MDA-MB-436 [7]): 30.2%
Activity (MDA-MB-436 [8]): 17%
Activity (MDA-MB-436 [9]): 25.1%
Activity (MDA-MB-436 [10]): 21.5%
Activity (MDA-MB-436 [11]): 25.4%
Activity (MDA-MB-436 [12]): 10.4%
Activity (MDA-MB-436 [13]): 29.1%
Activity (MDA-MB-436 [14]): 32.8%
Activity (MDA-MB-436 [15]): 9.85%
Activity (MDA-MB-436 [16]): 33.3%
Activity (MDA-MB-436 [17]): 28.5%
Activity (HCC1937 [18]): 36.6%
Activity (HCC1937 [19]): 19.9%
Activity (HCC1937 [20]): 18.3%
Activity (HCC1937 [21]): 32.8%
Activity (HCC1937 [22]): 18.7%
Activity (HCC1937 [23]): 21.6%
Activity (HCC1937 [24]): 24.7%
Activity (HCC1937 [25]): 23.2%
Activity (HCC1937 [26]): 22.4%
Activity (HCC1937 [27]): 7%
Activity (HCC1937 [28]): 17.8%
Activity (HCC1937 [29]): 45.9%
